Experimental data from patent publication US20070292387A1, “TRANSMUCOSAL DELIVERY OF PHARMACEUTICAL ACTIVE SUBSTANCES” (GWANGJU INSTITUTE OF SCIENCE AND TECHNOLOGY, priority 2006, published 2007).
Like-named read-outs stand apart in the source and are kept apart here.

Experiments:
[1] = oral, cited from earlier work
B16F10 melanoma cells = assay: Oral administration in B16F10 melanoma allograft (tumor size, survival); format: in vivo, C57BL6 male mice; conditions: oral 25 mg/kg, 5 days on, 2 days off, about 30 days; FIG. 7
Procedure: B16F10 melanoma cells were subcutaneously transplanted at a cell density of 5×10^6 cells/mice into a dorsal region of C57BL6 male mice (mean body weight: 25 g). […] Experiments were carried out for mouse groups, each consisting of 5 to 6 animals having the tumor, simultaneously with observation of changes. Animals were given oral administration of the drug or physiological saline for about 30 days, starting on day 10 after tumor transplantation. […] The control group was administered physiological saline, paclitaxel and chitosan. In order to confirm the degree of tumor growth, the size of tumor was daily measured using a calibrator. The tumor size was calculated according to the following Equation (2): Tumor volume (mm^3)=(Length×Width^2)/2 (Equation 2).
The survival rate of mice was also monitored simultaneously with measurement of the tumor size. When the tumor mass reached a size of more than 8000 mm^3, the animals were euthanized.

[2] = Plasma paclitaxel after single oral dose with or without P-gp inhibitor cyclosporine A; format: in vivo, ICR mice
Procedure: ICR mice (male, 25-30 g) were fasted for 12 hr before dosing. Mice were anesthetized with diethyl ether and administered with a single oral dose of paclitaxel or paclitaxel-chitosan conjugates with or without P-gp inhibitor (cyclosporine A, Sigma, 15 mg/kg) through an oral gavage that was carefully passed down the esophagus into the stomach. The drug solutions were prepared in 10% DMSO solution. The total volume of the administered drug solution was 0.2 ml. Blood (450 μl) was collected from a capillary in the retroorbital plexus and directly mixed with 50 Al of sodium citrate (3.8% solution); the sample was then immediately centrifuged at 3000 rpm at 4° C. for 20 min. The concentrations of paclitaxel in plasma were measured using HPLC after extraction.

Diabetes-induced rats [3] = assay: Bioavailability calculated from degree of blood glucose control (AUC) after oral administration; format: in vivo, rat; conditions: insulin 1.77 mg/kg, protease inhibitor not added
Procedure: (§1) An insulin-chitosan conjugate (a conjugate using chitosan of MW 3000, 6000 or 9000 Da) was dissolved in a citrate buffer solution and then diluted with physiological saline to prepare an insulin-chitosan conjugate solution at an insulin concentration of 100 U/mL. Diabetes-induced rats were fasted for 6 hours, and blood was collected from the tail veins of animals and the blood glucose level was determined. The thus-obtained value was used as an initial value prior to administration of the drug. The experimental animals were given oral administration of the above-prepared insulin-chitosan conjugate solution at a dose of 50 IU/kg using a gastric sonde (50 IU is equivalent to 1.77 mg of insulin). As a control, animals were given oral administration of 50 IU/kg insulin and chitosan of MW 9000 Da in the same manner as above. On time points of 1, 2, 3, and 4 hours after administration of the drug, blood was collected from the tail veins of animals and the blood glucose level was determined. The blood glucose level at each time point was calculated by taking the initial value prior to administration of the drug to be 100%.
Then, the bioavailability of conjugates were calculated from the degree of blood glucose control (area under curve, AUC) obtained in FIG. 2 after oral administration of each insulin-chitosan conjugate. […] In addition, as a control, known bioavailability of insulin, a protease-chitosan conjugate and a thiolated chitosan-insulin tablet preparation containing glutathione (a reducing agent) (Krauland A H, et al., J. Control Release, 24; 95(3):547-555 (2004)) was compared.

Diabetes-induced rats [4] = assay: In vivo oral administration of insulin-chitosan conjugate (blood glucose level); parameters: species or system rat; conditions: FIG. 2
Procedure: as §1

Compound: CC(=O)O[C@H]1C(=O)[C@@]2(C)[C@H]([C@H](OC(=O)c3ccccc3)[C@]3(O)C[C@H](OC(=O)[C@H](O)[C@@H](NC(=O)c4ccccc4)c4ccccc4)C(C)=C1C3(C)C)[C@]1(OC(C)=O)CO[C@@H]1C[C@@H]2O [paclitaxel]
- bioavailability of paclitaxel ([1]; PTX only): 4-10%
- bioavailability of paclitaxel ([1]; combined with a P-gp inhibitor such as cyclosporin A or Valspodar): 50-60%
- tumor size compared to the control group (B16F10 melanoma cells): no significant difference in the tumor size
- increase of maximum plasma concentration (Cmax) when coadministrated with cyclosporine A ([2]; cyclosporine A 15 mg/kg, FIG. 6a): 9.3 fold
- Cmax ([2]; male, ICR, mouse, plasma, without cyclosporine A, conjugate chitosan MW 6000, read-out: maximum plasma concentration (Cmax) of paclitaxel): 90 ± 20 ng/mL

Compound: Insulin-3K LMWC: insulin-chitosan conjugate using low molecular weight chitosan of MW 3000 Da
- Bioavailability (%) (SC injection: 100%) (Diabetes-induced rats [3]): 1.89 ± 0.32%

Compound: Insulin-6K LMWC: insulin-6 KDa low molecular weight chitosan conjugate
- Bioavailability (%) (IV injection: 100%) (Diabetes-induced rats [3]): 0.77 ± 0.16%
- Bioavailability (%) (SC injection: 100%) (Diabetes-induced rats [3]): 2.66 ± 0.38%

Compound: Insulin-9K LMWC: insulin-chitosan conjugate using low molecular weight chitosan of MW 9000 Da
- Bioavailability (%) (IV injection: 100%) (Diabetes-induced rats [3]): 1.0 ± 0.13%
- Bioavailability (%) (SC injection: 100%) (Diabetes-induced rats [3]): 3.69 ± 0.29%

Compound: insulin
- lowering of the blood glucose levels (in words) (Diabetes-induced rats [4]; insulin 50 IU/kg, chitosan of MW 9000 Da): no lowering of the blood glucose levels

Compound: insulin-chitosan conjugate: insulin (B29 lysine) bound via -CO-(CH2)2-S-S-(CH2)2-CO- linker to chitosan of MW 3000, 6000 or 9000
- decrease in the blood glucose level compared to the initial blood glucose level (Diabetes-induced rats [4]; 50 IU insulin/kg, 2 hours later): > 40%
